The test system of this assay is human PBMC. Put plainly: IL-2-dependent growth of human peripheral blood mononuclear cells (CellTiter-Glo). The following applies: 48 h, IL-2 2 ng/mL stimulation, 2 days. Type of assay: cell-based. The method, then: The activity of the compound of the present invention to inhibit the IL-2-dependent growth reaction of human PBMC, which is caused by JAK3, was measured (Arthritis Rheum. 2010; 62(8): 2283-93).
Using a medium comprising 10 μg/mL PHA-M (Sigma) (which is RPMI-1640 (Sigma) comprising 10% human serum type AB (MP Biomedicals)), human PBMC (C.T.L.) (cell density: 1×10^6 cells/mL) was cultured at 37° C. in a culture vessel comprising 5% carbon dioxide for 3 days. Thereafter, the culture was washed with RPMI-1640 four times, and a medium (RPMI-1640 comprising 10% human serum type AB) was then added to the resultant culture to prepare a cell suspension. The cells (1×10^4 cells per well) and the serially diluted compound of the present invention were added to each well of a 96-well U-bottom microplate, and the thus obtained mixture was then cultured at 37° C. in a culture vessel comprising 5% carbon dioxide for 30 minutes. After completion of the culture, recombinant human IL-2 (Peprotech) was added to the culture to a final concentration of 2 ng/mL, and the obtained mixture was then stirred at 37° C. in a culture vessel comprising 5% carbon dioxide for 2 days (1×10^4 cells/100 μl/each well). After completion of the culture, the resultant was left at a room temperature for 30 minutes, and 100 μl of CellTiter-Glo Luminescent Cell Viability Assay (Promega) was then added to the resultant, followed by stirring it. Thereafter, the reaction mixture was left for 10 minutes, and the amount of a luminescence derived from living cells in each well was then measured using a microplate reader (TECAN). The inhibition rate of the present compound to the cell growth caused by IL-2 stimulation was calculated, and the concentration of the compound capable of inhibiting 50% of the cell growth was defined as an IC50 value (nM).
On the technique in general: ATP-based viability assays read luminescence as a measure of living cells.

`C=CC(=O)NC1CCC=C(c2ncnc3[nH]cc(-c4ccc(C)cc4)c23)C1` (centres unmarked) [Comparative Example 4, N-(3-(5-(p-Tolyl)-7H-pyrrolo[2,3-d]pyrimidin-4-yl)cyclohex-3-en-1-yl)acrylamide, reference compound] had an IC50 above 1 µM.

`C=CC(=O)NC1CCC=C(c2ncnc3[nH]cc(-c4cc5ccccc5o4)c23)C1` (centres unmarked) [Comparative Example 9, N-(3-(5-(Benzofuran-2-yl)-7H-pyrrolo[2,3-d]pyrimidin-4-yl)cyclohex-3-en-1-yl)acrylamide, reference compound] yielded an IC50 above 1 µM.

The IC50 is the concentration that gives 50% inhibition.

The values above are taken from patent US10421760B2, “Pyrrolo[2,3-d]pyrimidine compound or salt thereof” (TAIHO PHARMACEUTICAL CO., LTD., priority 2015, dated 2019).
